Experimental data published in US20100285140A1, “ANTIMICROBIAL AGENT FOR GRAM-POSITIVE BACTERIA” (priority 2007, published 2010).
Converted amounts (≈) assume the structure as drawn.

Legend:
Experiment in all cases: broth microdilution MIC/MBC
Assay type in all cases: cell-based
MRSA N315 = conditions: Staphylococcus aureus, ABPC
MSSA ATCC6538 = conditions: Staphylococcus aureus, ABPC
[1] = system: MRSA clinical isolate 2526 blaZ(+); conditions: Staphylococcus aureus, ABPC
MSSA JCM2874 = conditions: Staphylococcus aureus, ABPC
MRSA JCM8703 = conditions: Staphylococcus aureus, ABPC
[2] = system: MRSA clinical isolate 1801 blaZ(−); conditions: Staphylococcus aureus, ABPC
[3] = system: MRSA clinical isolate 2005 blaZ(+); conditions: Staphylococcus aureus, ABPC
VRE GTC02000 = conditions: Enterococcus, ABPC
[4] = system: MRSA clinical isolate 2022 blaZ(−); conditions: Staphylococcus aureus, ABPC
VSE5804 = conditions: Enterococcus, ABPC
Experimental: Ampicillin (ABPC) was used as a positive control. The measurement was carried out in accordance with a broth microdilution method (NCCLS). […] These serial dilutions were placed in a 96-well plate, and a bacterial strain was added to each well at an amount of 10^5 CFU/ml, followed by incubation at 35° C. for 18 hours. In the case where turbidity was visually observed, it was judged that the bacterial strain grew. The lowest concentration at which the bacterial growth was not observed was defined as MIC. A solution was collected from the well in which bacterial growth was not observed, added to an antibiotic-free medium, and then incubated at 35° C. for 18 hours, followed by visually observing existence of turbidity. The lowest concentration at which turbidity was not observed was defined as MBC. Values in the tables are: ABPC, μg/ml; polymer particles, mg/ml. Numbers in the parentheses indicate the dilution factor.

MIC (MSSA ATCC6538): 0.063 µg/mL (≈ 0.18 µM)
MIC [1]: 64 µg/mL (≈ 183 µM)
MIC (MSSA JCM2874): 2 µg/mL (≈ 5.72 µM)
MIC (MRSA JCM8703): 64 µg/mL (≈ 183 µM)
MIC [2]: 16 µg/mL (≈ 45.8 µM)
MIC [3]: 64 µg/mL (≈ 183 µM)
MIC (VRE GTC02000): 1 µg/mL (≈ 2.86 µM)
MIC [4]: 16 µg/mL (≈ 45.8 µM)
MIC (VSE5804): 0.5 µg/mL (≈ 1.43 µM)
Structure (SMILES): CC1(C)S[C@@H]2[C@H](NC(=O)[C@H](N)c3ccccc3)C(=O)N2[C@H]1C(=O)O [ABPC, Ampicillin]
MBC (MRSA N315): 32 µg/mL (≈ 91.6 µM)
MBC (MSSA ATCC6538): 0.063 µg/mL (≈ 0.18 µM)
MBC [1]: 64 µg/mL (≈ 183 µM)
MBC (MSSA JCM2874): 2 µg/mL (≈ 5.72 µM)
MBC (MRSA JCM8703): 64 µg/mL (≈ 183 µM)
MBC [2]: 16 µg/mL (≈ 45.8 µM)
MBC [3]: 64 µg/mL (≈ 183 µM)
MBC (VRE GTC02000): 1 µg/mL (≈ 2.86 µM)
MBC [4]: 16 µg/mL (≈ 45.8 µM)
MBC (VSE5804): 0.5 µg/mL (≈ 1.43 µM)
